The source of these data is US10836726B2, “AZO-quaternary pyridinium salts with acid-enhanced antibacterial efficacy, methods of use, methods of synthesis, and uses thereof” (priority 2016, dated 2020).

Common to all, as to assay type: cell-based
Experiment [1] deals with Escherichia coli (E. coli, K12). Nature of the experiment: Bacterial growth curves (OD600) after exposure in pH buffers. As for the experimental part:
(§1) Azo-QPS-C16 was effective on both […] bacteria. The ability of bacteria to proliferate after exposure to Azo-QPS-C16 was characterized by adding growth medium and measuring the optical density (OD) at 600 nm every 15 minutes in pH 4.1, 5.8, and 7.9 buffer. […] However, exposure at pH 7.9 required a much higher concentration (40 μg/mL) to inhibit cell growth. […] The pH dependence of bactericidal activity of Azo-QPS-C16 in terms of minimum bactericidal concentration (MBC) was evaluated by inoculating cultures onto a Lysogeny Broth (LB) agar plate after treating the cells with a twofold dilution series of Azo-QPS-C16.
(§2) Bacterial strains and growth conditions. […]
(§3) In a 96-well plate, 2 μL of Azo-QPS-C16 at various concentrations in dimethyl sulfoxide (DMSO) were added to 98 μL of bacteria suspension per well for a final concentration ranging from a 2-fold dilution series between 40 to 1.25 μg/mL of Azo-QPS-C16. […] E. coli were cultured at 37° C., and the OD600 of each well was measured by a Tecan Spark microplate reader (Männedorf, Switzerland) every 15 minutes for up to 19 hours, with 30 seconds shaking before each measurement. S. mutans were grown at 37° C. with 5% CO2, and the OD600 of each well was measured periodically using a Molecular Devices (Sunnyvale, Calif.) SpectraMax M5 microplate reader. […]

Experiment [2] has the same test system. Nature of the experiment: Minimum bactericidal concentration (MBC) determination by agar colony formation. To be noted: MBC increased as pH increased. On the procedure:
as §1, §2, §3

For experiment [3], the system named is Streptococcus mutans (S. mutans, UA159). The experiment is described as above. To be noted: more effective in acidic conditions.
Description: The inventor observed similar pH-sensitive antibacterial activity of Azo-QPS-C16 towards the Gram-positive, lactic acid producing, cariogenic bacteria S. mutans.
Bacterial strains and growth conditions. Streptococcus mutans (S. mutans, UA159) and Escherichia coli (E. coli, K12) were purchased from ATCC (American Type Culture Collection, Manassas, Va., USA). Todd Hewitt Broth (THB), and Lysogeny Broth (LB) powder and agar were purchased from BD (Becton, Dickinson and Company, Franklin Lakes, N.J., USA). Planktonic cultures were inoculated from 25% (by volume) glycerol frozen stocks stored at −80° C. E. coli cultures were grown in LB at 37° C. in a shaker-incubator. S. mutans cultures were grown in THB at 37° C. with 5% (by volume) CO2 overnight.
as §3

As for `C=C(C)C(=O)Oc1ccc(/N=N/c2cc[n+](CCCCCCCCCCCCCCCC)cc2)cc1.[Br-]` [Azo-QPS-C16, (E)-1-hexadecyl-4-((4-(methacryloyloxy)phenyl)diazenyl)-pyridinium bromide], the “concentration that fully inhibited E. coli growth up to 19 hours” value in experiment [1] (exposure at pH 4.1, 45 min treatment, OD 600 nm) was found to be 2.5 µg/mL. Also, in experiment [1] (exposure at pH 7.9, E. coli), the “concentration required to inhibit cell growth” value worked out at 40 µg/mL. In experiment [2], the “difference in MBC between pH 4.1 and pH 7.9” value is 16 fold. Besides, the “MBC-based effectiveness in acidic versus mildly basic conditions” value in experiment [3] is recorded as 8 fold.
